US9914731B2, “Pyrazolo[1,5-a]pyridine derivatives and methods of their use” (Ignyta, Inc., priority 2013, dated 2018)

biological target: recombinant human baculovirus-expressed cMET (Homo sapiens (Human), UniProt P08581); assay: c-MET kinase assay (HTRF KinEASE); assay type: biochemical; settings: not given

Compound	IC50 [nM]
O=C(Nc1ccc(Oc2cccn3nccc23)c(F)c1)C1CCN(c2ccc(F)cc2)C1=O (stereo not drawn) [Example 10, 1-(4-Fluoro-phenyl)-2-oxo-pyrrolidine-3-carboxylic acid [3-fluoro-4-(pyrazolo[1,5-a]pyridin-4-yloxy)-phenyl]-amide]	10 to 100

same assay, conditions: average of two or more determinations; read-out: c-MET IC50

Compound	IC50 [nM]
1-Methyl-5-trifluoromethyl-1H-pyrazole-4-carboxylic acid [4-(pyrazolo[1, 5-a]pyridin-4-yloxy)-phenyl]-amide [Example 17]	1000 to 10000
O=C(Nc1ccc(Oc2cccn3nccc23)cc1)c1cccn(-c2ccc(F)cc2)c1=O [Example 1, 1-(4-Fluoro-phenyl)-2-oxo-1,2-dihydro-pyridine-3-carboxylic acid [4-(pyrazolo[1,5-a]pyridin-4-yloxy)-phenyl]-amide]	< 10
O=C(Nc1ccc(Oc2cccn3nccc23)c(F)c1)c1cccn(-c2ccc(F)cc2)c1=O [Example 4, 1-(4-Fluoro-phenyl)-2-oxo-1,2-dihydro-pyridine-3-carboxylic acid [3-fluoro-4-(pyrazolo[1,5-a]pyridin-4-yloxy)-phenyl]-amide]	< 10
O=C(Nc1ccc(F)cc1)C1(C(=O)Nc2ccc(Oc3cccn4nccc34)c(F)c2)CC1 [Example 5, Cyclopropane-1,1-dicarboxylic acid (4-fluoro-phenyl)-amide [3-fluoro-4-(pyrazolo[1,5-a]pyridin-4-yloxy)-phenyl]-amide]	< 10
O=C(Cc1ccc(F)cc1)NC(=S)Nc1ccc(Oc2cccn3nccc23)c(F)c1 [Example 6, 1-[2-(4-Fluoro-phenyl)-acetyl]-3-[3-fluoro-4-(pyrazolo[1,5-a]pyridin-4-yloxy)-phenyl]-thiourea]	10 to 100
O=C(Nc1ccc(Oc2cccn3nccc23)c(F)c1)c1cccn(Cc2ccc(F)cc2)c1=O [Example 8, 1-(4-Fluoro-benzyl)-2-oxo-1,2-dihydro-pyridine-3-carboxylic acid [3-fluoro-4-(pyrazolo[1,5-a]pyridin-4-yloxy)-phenyl]-amide]	101 to 1000
O=C(Nc1ccc(Oc2cccn3nccc23)c(F)c1)c1cccn(Cc2cccc(F)c2)c1=O [Example 9, 1-(3-Fluoro-benzyl)-2-oxo-1,2-dihydro-pyridine-3-carboxylic acid [3-fluoro-4-(pyrazolo[1,5-a]pyridin-4-yloxy)-phenyl]-amide]	101 to 1000
O=C(Nc1ccc(Oc2cccn3nccc23)c(F)c1)c1c[nH]c(=O)n(-c2ccc(F)cc2)c1=O [Example 11, 3-(4-Fluoro-phenyl)-2,4-dioxo-1,2,3,4-tetrahydro-pyrimidine-5-carboxylic acid [3-fluoro-4-(pyrazolo[1,5-a]pyridin-4-yloxy)-phenyl]-amide]	10 to 100
O=C(Nc1ccc(Oc2cccn3nccc23)c(F)c1)c1c(I)ccn(-c2ccc(F)cc2)c1=O [Example 12, 1-(4-Fluoro-phenyl)-4-iodo-2-oxo-1,2-dihydro-pyridine-3-carboxylic acid [3-fluoro-4-(pyrazolo[1,5-a]pyridin-4-yloxy)-phenyl]-amide]	10 to 100
CCOc1ccn(-c2ccc(F)cc2)c(=O)c1C(=O)Nc1ccc(Oc2cccn3nccc23)c(F)c1 [Example 13, 4-Ethoxy-1-(4-fluoro-phenyl)-2-oxo-1,2-dihydro-pyridine-3-carboxylic acid [3-fluoro-4-(pyrazolo[1,5-a]pyridin-4-yloxy)-phenyl]-amide]	< 10
CCOCCOc1ccn(-c2ccc(F)cc2)c(=O)c1C(=O)Nc1ccc(Oc2cccn3nccc23)c(F)c1 [Example 14, 4-(2-Ethoxy-ethoxy)-1-(4-fluoro-phenyl)-2-oxo-1,2-dihydro-pyridine-3-carboxylic acid [3-fluoro-4-(pyrazolo[1,5-a]pyridin-4-yloxy)-phenyl]-amide]	10 to 100

Continued, values first:

IC50 [nM]	Compound
10 to 100	CCNc1ccn(-c2ccc(F)cc2)c(=O)c1C(=O)Nc1ccc(Oc2cccn3nccc23)c(F)c1 [Example 15, 4-Ethylamino-1-(4-fluoro-phenyl)-2-oxo-1,2-dihydro-pyridine-3-carboxylic acid [3-fluoro-4-(pyrazolo[1,5-a]pyridin-4-yloxy)-phenyl]-amide]
1000 to 10000	Cc1c(C(=O)Nc2ccc(Oc3cccn4nccc34)cc2)cnn1-c1ccc(F)cc1 [Example 18, 1-(4-Fluoro-phenyl)-5-methyl-1H-pyrazole-4-carboxylic acid [4-(pyrazolo[1,5-a]pyridin-4-yloxy)-phenyl]-amide]
1000 to 10000	O=C(Nc1ccc(Oc2cccn3nccc23)cc1)c1cnn(-c2ccccc2)c1C(F)(F)F [Example 19, 1-Phenyl-5-trifluoromethyl-1H-pyrazole-4-carboxylic acid [4-(pyrazolo[1,5-a]pyridin-4-yloxy)-phenyl]-amide]
1000 to 10000	Cc1nn(-c2ccccc2)c(C)c1C(=O)Nc1ccc(Oc2cccn3nccc23)cc1 [Example 20, 3,5-Dimethyl-1-phenyl-1H-pyrazole-4-carboxylic acid [4-(pyrazolo[1,5-a]pyridin-4-yloxy)-phenyl]-amide]
101 to 1000	COc1cc(Oc2ccc(NC(=O)c3cccn(-c4ccc(F)cc4)c3=O)cc2F)c2ccnn2c1 [Example 22, 1-(4-Fluoro-phenyl)-2-oxo-1,2-dihydro-pyridine-3-carboxylic acid [3-fluoro-4-(6-methoxy-pyrazolo[1,5-a]pyridin-4-yloxy)-phenyl]-amide]
101 to 1000	O=C(Nc1ccc(Oc2cccn3ncc(Cl)c23)c(F)c1)c1cccn(-c2ccc(F)cc2)c1=O [Example 23, 1-(4-Fluoro-phenyl)-2-oxo-1,2-dihydro-pyridine-3-carboxylic acid [4-(3-chloro-pyrazolo[1,5-a]pyridin-4-yloxy)-3-fluoro-phenyl]-amide]
< 10	O=C(Nc1ccc(Oc2cc(Br)cn3nccc23)c(F)c1)c1cccn(-c2ccc(F)cc2)c1=O [Example 24, (4-Fluoro-phenyl)-2-oxo-1,2-dihydro-pyridine-3-carboxylic acid [4-(6-bromo-pyrazolo[1,5-a]pyridin-4-yloxy)-3-fluoro-phenyl]-amide]
< 10	Cn1cc(-c2cc(Oc3ccc(NC(=O)C4(C(=O)Nc5ccc(F)cc5)CC4)cc3F)c3ccnn3c2)cn1 [Example 32, Cyclopropane-1,1-dicarboxylic acid {3-fluoro-4-[6-(1-methyl-1H-pyrazol-4-yl)-pyrazolo[1,5-a]pyridin-4-yloxy]-phenyl}-amide(4-fluoro-phenyl)-amide]
< 10	CN1CCN(c2ccc(-c3cc(Oc4ccc(NC(=O)C5(C(=O)Nc6ccc(F)cc6)CC5)cc4F)c4ccnn4c3)cn2)CC1 [Example 36, Cyclopropane-1,1-dicarboxylic acid (3-fluoro-4-{6-[6-(4-methyl-piperazin-1-yl)-pyridin-3-yl]-pyrazolo[1,5-a]pyridin-4-yloxy}-phenyl)-amide (4-fluoro-phenyl)-amide]
< 10	CN1CCN(c2ccc(-c3cc(Oc4ccc(NC(=O)c5cccn(-c6ccc(F)cc6)c5=O)cc4F)c4ccnn4c3)cn2)CC1 [Example 37, 1-(4-Fluoro-phenyl)-2-oxo-1,2-dihydro-pyridine-3-carboxylic acid (3-fluoro-4-{6-[6-(4-methyl-piperazin-1-yl)-pyridin-3-yl]-pyrazolo[1,5-a]pyridin-4-yloxy}-phenyl)-amide]
< 10	CN1CCN(c2cc(Oc3ccc(NC(=O)c4cccn(-c5ccc(F)cc5)c4=O)cc3F)c3ccnn3c2)CC1 [Example 38, 1-(4-Fluoro-phenyl)-2-oxo-1,2-dihydro-pyridine-3-carboxylic acid {3-fluoro-4-[6-(4-methyl-piperazin-1-yl)-pyrazolo[1,5-a]pyridin-4-yloxy]-phenyl}-amide]
< 10	Cn1nccc1-c1cc(Oc2ccc(NC(=O)c3cccn(-c4ccc(F)cc4)c3=O)cc2F)c2ccnn2c1 [Example 41, 1-(4-Fluoro-phenyl)-2-oxo-1,2-dihydro-pyridine-3-carboxylic acid{3-fluoro-4-[6-(2-methyl-2H-pyrazol-3-yl)-pyrazolo[1,5-a]pyridine-4-yloxy]-phenyl}-amide]
< 10	O=C(Nc1ccc(Oc2cc(C3CCOCC3)cn3nccc23)c(F)c1)c1cccn(-c2ccc(F)cc2)c1=O [Example 47, 1-(4-Fluoro-phenyl)-2-oxo-1,2-dihydro-pyridine-3-carboxylic acid{3-fluoro-4-[6-(tetrahydro-pyran-4-yl)-pyrazolo[1,5-a]pyridin-4-yloxy]-phenyl}-amide]
< 10	Cc1noc(C)c1-c1cc(Oc2ccc(NC(=O)c3cccn(-c4ccc(F)cc4)c3=O)cc2F)c2ccnn2c1 [Example 48, 1-(4-Fluoro-phenyl)-2-oxo-1,2-dihydro-pyridine-3-carboxylic acid{4-[6-(3,5-dimethyl-isoxazol-4-yl)-pyrazolo[1,5-a]pyridin-4-yloxy]-3-fluoro-phenyl}-amide]
< 10	Cc1ccc(C(=O)Nc2ccc(Oc3cc(C4CCS(=O)(=O)CC4)cn4nccc34)c(F)c2)c(=O)n1-c1ccc(F)cc1 [Example 50, 1-(4-Fluoro-phenyl)-6-methyl-2-oxo-1,2-dihydro-pyridine-3-carboxylic acid {4-[6-(1,1-dioxo-hexahydro-thiopyran-4-yl)-pyrazolo[1,5-a]pyridin-4-yloxy]-3-fluoro-phenyl}-amide]
< 10	CCn1cc(C(=O)Nc2ccc(Oc3cc(-c4cnco4)cn4nccc34)c(F)c2)c(=O)n(-c2ccc(F)cc2)c1=O [Example 52, 1-Ethyl-3-(4-fluoro-phenyl)-2,4-dioxo-1,2,3,4-tetrahydro-pyrimidine-5-carboxylic acid[3-fluoro-4-(6-oxazol-5-yl-pyrazolo[1,5-a]pyridin-4-yloxy)-phenyl]-amide]
< 10	O=C(Nc1ccc(Oc2cc(-c3cnsc3)cn3nccc23)c(F)c1)c1cccn(-c2ccc(F)cc2)c1=O [Example 53, 1-(4-Fluoro-phenyl)-2-oxo-1,2-dihydro-pyridine-3-carboxylic acid[3-fluoro-4-(6-isothiazol-4-yl-pyrazolo[1,5-a]pyridin-4-yloxy)-phenyl]-amide]

same assay, conditions: read-out: c-MET IC50

Compound	IC50 [nM]
COc1ccc(-c2cc(Oc3ccc(NC(=O)c4cccn(-c5ccc(F)cc5)c4=O)cc3F)c3ccnn3c2)cn1 [Example 35, 1-(4-Fluoro-phenyl)-2-oxo-1,2-dihydro-pyridine-3-carboxylic acid {3-fluoro-4-[6-(6-methoxy-pyridin-3-yl)-pyrazolo[1,5-a]pyridin-4-yloxy]-phenyl}-amide]	< 10
